According to the Kinase Knowledgebase extract (Sharma et al. 2016):

Molecular target: ROCK2 (human) (UniProt O75116)
Experiment: Enzyme Assay

Chain of ROCK2 (human) (O75116 whole entry, looked up): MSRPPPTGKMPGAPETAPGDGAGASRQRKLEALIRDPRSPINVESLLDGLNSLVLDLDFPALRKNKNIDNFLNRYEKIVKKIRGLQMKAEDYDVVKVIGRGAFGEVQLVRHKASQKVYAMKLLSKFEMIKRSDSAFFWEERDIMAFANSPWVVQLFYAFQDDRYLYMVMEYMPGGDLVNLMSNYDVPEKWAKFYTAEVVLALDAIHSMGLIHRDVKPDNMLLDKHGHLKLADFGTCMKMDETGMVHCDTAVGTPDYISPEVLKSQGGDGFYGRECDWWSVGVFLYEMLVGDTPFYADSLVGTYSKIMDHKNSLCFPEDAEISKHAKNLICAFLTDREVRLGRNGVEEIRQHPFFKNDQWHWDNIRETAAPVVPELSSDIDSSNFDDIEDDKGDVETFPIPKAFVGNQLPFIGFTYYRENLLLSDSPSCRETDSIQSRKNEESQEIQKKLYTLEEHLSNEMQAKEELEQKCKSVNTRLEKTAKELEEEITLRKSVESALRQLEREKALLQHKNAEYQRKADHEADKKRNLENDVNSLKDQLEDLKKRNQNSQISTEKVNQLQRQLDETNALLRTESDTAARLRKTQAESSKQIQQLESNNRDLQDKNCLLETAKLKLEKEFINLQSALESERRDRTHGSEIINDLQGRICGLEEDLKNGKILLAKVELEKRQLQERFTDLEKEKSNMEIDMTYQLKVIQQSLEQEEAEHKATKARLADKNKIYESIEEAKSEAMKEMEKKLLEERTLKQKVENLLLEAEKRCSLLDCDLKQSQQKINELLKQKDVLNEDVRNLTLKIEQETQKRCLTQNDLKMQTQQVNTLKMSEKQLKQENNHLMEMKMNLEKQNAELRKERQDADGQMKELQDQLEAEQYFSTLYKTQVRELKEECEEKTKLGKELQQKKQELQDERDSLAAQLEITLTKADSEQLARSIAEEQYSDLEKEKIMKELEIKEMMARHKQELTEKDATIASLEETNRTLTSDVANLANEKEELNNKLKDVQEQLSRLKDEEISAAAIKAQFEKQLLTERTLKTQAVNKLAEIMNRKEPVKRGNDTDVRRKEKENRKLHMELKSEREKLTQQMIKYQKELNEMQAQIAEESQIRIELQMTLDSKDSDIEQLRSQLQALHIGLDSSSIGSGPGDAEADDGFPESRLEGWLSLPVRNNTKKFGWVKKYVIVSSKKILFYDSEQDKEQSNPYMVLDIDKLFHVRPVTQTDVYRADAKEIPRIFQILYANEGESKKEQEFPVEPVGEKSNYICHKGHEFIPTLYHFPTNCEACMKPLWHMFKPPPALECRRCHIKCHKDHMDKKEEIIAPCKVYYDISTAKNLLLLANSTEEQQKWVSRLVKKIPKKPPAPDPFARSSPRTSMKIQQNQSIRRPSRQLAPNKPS

IC50, < 100 nM:
NCc1ccc(C(=O)Nc2ccncc2F)cc1-c1cccc(C(=O)Nc2cccc(SC3CCOC3=O)c2)c1 (stereo unspecified)
NCc1ccc(C(=O)Nc2ccncc2F)cc1-c1cccc(C(=O)Nc2ccc(NC3CCOC3=O)cc2)c1 (stereo unspecified)
NCc1ccc(C(=O)Nc2ccncc2F)cc1-c1cccc(C(=O)Nc2ncc(NC3CCOC3=O)s2)c1 (stereo unspecified)
NCc1ccc(C(=O)Nc2ccncc2F)cc1-c1cccc(C(=O)Nc2ccc(SC3COC(=O)C3)cc2)c1 (stereo unspecified)
NCc1ccc(C(=O)Nc2ccncc2F)cc1-c1cccc(NC(=O)c2ccc(NC3CCOC3=O)cc2)c1 (stereo unspecified)
CN(c1ccc(NC(=O)c2cccc(-c3cc(C(=O)Nc4ccncc4F)ccc3CN)c2)cc1)C1CCOC1=O (stereo unspecified)
NCc1ccc(C(=O)Nc2ccncc2F)cc1-c1cccc(C(=O)Nc2ccc(SC3CCOC3=O)cc2F)c1 (stereo unspecified)
NCc1ccc(C(=O)Nc2ccncc2F)cc1-c1cccc(C(=O)Nc2ccc(OC3CCOC3=O)cc2)c1 (stereo unspecified)
NCc1ccc(C(=O)Nc2ccncc2F)cc1-c1cccc(C(=O)Nc2ccc(SCC3CCOC3=O)cc2)c1 (stereo unspecified)
NCc1ccc(C(=O)Nc2ccncc2F)cc1-c1cccc(C(=O)Nc2ccc(CNC3CCOC3=O)cc2)c1 (stereo unspecified)
NCc1ccc(C(=O)Nc2ccncc2)cc1-c1cccc(NC(=O)c2ccc(SC3CCOC3=O)cc2)c1 (stereo unspecified)
CC1CC(Sc2ccc(NC(=O)c3cccc(-c4cc(C(=O)Nc5ccncc5F)ccc4CN)c3)cc2)C(=O)O1 (stereo unspecified)
CC1(C)COC(=O)C1Sc1ccc(NC(=O)c2cccc(-c3cc(C(=O)Nc4ccncc4F)ccc3CN)c2)cc1 (stereo unspecified)
Cc1cc(NC2CCOC2=O)ccc1NC(=O)c1cccc(-c2cc(C(=O)Nc3ccncc3F)ccc2CN)c1 (stereo unspecified)
NCc1ccc(C(=O)Nc2ccncc2F)cc1-c1cccc(C(=O)Nc2ccc(SC3CCOC3=O)cc2)c1 (stereo unspecified)
NCc1ccc(C(=O)Nc2ccncc2F)cc1-c1cccc(NC(=O)c2ccc(SC3CCOC3=O)cc2)c1 (stereo unspecified)
